Assay [1] concerns NPC1 human fibroblast GM03123 cells. Description: Filipin microscopy assay of free cholesterol in lysosomal storage organelles (LSO ratio). Format: cell-based. Conditions: for EC50: read-out: EC50 for correcting the NPC1 phenotype; for effect on NPC1 phenotype: after 4 hours.
Experimental: Images were acquired with wide-field microscopy at 10× magnification. […] The effect of each HDACi on NPC1 human fibroblasts was then determined at varying concentrations and times. […] Briefly, NPC1 human fibroblast GM03123 cells were seeded in five 384-well plates in growth medium. […] HDACi were allowed to remain in the culture medium for 72, 48, 24, 4, and 0 hours of treatment. For the control, cells were treated with a corresponding concentration of dimethyl sulfoxide (DMSO). HDACi were added to five wells for each concentration. […] Images were analyzed to obtain an LSO ratio and data were normalized to corresponding DMSO-treated cells.
In assay [2] the test system is NPC1 human fibroblast GM18453 cells. Description: Filipin microscopy assay of free cholesterol in LSO (LSO ratio). Format: cell-based.
Experimental: Next, the effect of HDACi on NPC1I1061T homozygous NPC1 human fibroblasts (GM18453) and on NPC2 human fibroblasts (GM18445) was evaluated. Briefly, NPC1 human fibroblast GM18453 cells and NPC2 human fibroblast GM18455 cells were seeded in five 384-well plates in growth medium. […] Cells were incubated at 37° C. in the presence of 5% CO2 atmosphere for 48 hours. […] Images were analyzed to obtain an LSO ratio and data were normalized to corresponding DMSO-treated cells. […] The dotted horizontal lines indicate mean values for the solvent control, and error bars represent the standard error.
Briefly, NPC1 human fibroblast GM18453 cells and NPC2 human fibroblast GM18455 cells were seeded in five 384-well plates in growth medium. […] Cells were incubated at 37° C. in the presence of 5% CO2 atmosphere for 48 hours. […] Images were analyzed to obtain an LSO ratio, and data were normalized to corresponding DMSO-treated cells. […] The dotted horizontal lines indicate mean values for the solvent control, and the error bars represent the standard error.
The target in the next assay is HDAC2 (Homo sapiens, UniProt Q92769). The following applies: read-out: Inhibition constant Ki HDAC2; cited from earlier work.
HDAC2, sequence (Q92769 whole entry, species assumed): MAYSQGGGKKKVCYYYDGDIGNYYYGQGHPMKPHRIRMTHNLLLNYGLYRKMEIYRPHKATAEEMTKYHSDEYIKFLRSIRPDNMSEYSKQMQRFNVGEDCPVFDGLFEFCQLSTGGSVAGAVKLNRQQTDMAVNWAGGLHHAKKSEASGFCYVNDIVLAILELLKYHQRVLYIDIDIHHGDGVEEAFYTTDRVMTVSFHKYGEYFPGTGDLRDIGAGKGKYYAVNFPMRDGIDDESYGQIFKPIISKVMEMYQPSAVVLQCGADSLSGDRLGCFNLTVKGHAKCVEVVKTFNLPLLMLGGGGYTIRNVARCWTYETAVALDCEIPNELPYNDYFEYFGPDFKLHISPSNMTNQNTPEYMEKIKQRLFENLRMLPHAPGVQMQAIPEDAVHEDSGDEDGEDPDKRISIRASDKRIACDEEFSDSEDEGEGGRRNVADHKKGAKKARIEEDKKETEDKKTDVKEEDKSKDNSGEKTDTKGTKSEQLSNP
Where [3] appears, read: Homo sapiens, Fibroblast, after 48 hours.

SMILES strings stand for the structures. Read-outs that look alike come from different tables or passages of the source.

As a reminder, the EC50 is the concentration needed to bring the measured effect to its halfway point. What is called Ki is a dissociation constant, usually derived from enzyme kinetics or from competition with a known ligand.

In the case of `CCCCOc1ccc(CC(=O)NO)cc1` [Bufexamac], the “correction of the NPC1 phenotype” value in assay [1] (various concentrations (0.04-10 μM) and times (4-72 hours), GM03123) is on record as “no correction of the NPC1 phenotype”.

`COc1ccc(Cn2ccc3ccc(C(=O)NO)cc32)cc1` [PCI-34051]: the “correction of the NPC1 phenotype” value in assay [2] (40 nM to 10 μM, 48 hours, NPC1 human fibroblasts (FIG. 6)) is reported as “no correction of the NPC1 phenotype”. As to `CC(/C=C/C(=O)NO)=C\[C@@H](C)C(=O)c1ccc(N(C)C)cc1` [TSA, trichostatin A], the EC50 in assay [1] (after 48 hours) is ~20 nM. Regarding `O=C(CCCCCCC(=O)Nc1cccnc1)NO` [Pyroxamide], in assay [1] (setting [3]), the EC50 is ~1000 nM. At HDAC2, the Ki was 3.6 nM.

`Cc1[nH]c2ccccc2c1CCNCc1ccc(/C=C/C(=O)NO)cc1` [LBH-589, panobinostat]: the EC50 in assay [1] (Homo sapiens, Fibroblast, 48 h) was < 4 nM. Further, the “concentration of highest efficacy in correcting the NPC1 phenotype” value in assay [2] (48-hour treatment, GM18453) stood at 37 nM. For `O=C(CCCCCCC(=O)Nc1ccccc1)NO` [SAHA, vorinostat], the “effect on NPC1 phenotype” value in assay [1] (GM03123) is on record as “no effect”. For `CC(=O)Nc1ccc(C(=O)Nc2ccccc2N)cc1` [CL-994], in assay [1] (setting [3]), the EC50 was ~1000 nM. In addition, the “effect on NPC1 phenotype” value in assay [1] (GM03123) is recorded as “no effect”.

The values above are taken from patent US9333222B2, “Histone deacetylase inhibitors as therapeutic agents for Niemann-Pick type C disease” (University of Notre Dame du Lac, priority 2009, dated 2016).
